Measurements from patent US6590140B1, “Metal-regulated transporters and uses therefor” (Trustees of Dartmouth College, priority 1996, dated 2003).

Assays:
[1] = system: zrt1zrt2 double mutant strain ZHY3; test: 65Zn uptake assay in zrt1zrt2 double mutant; type: cell-based, Saccharomyces cerevisiae; details: ZHY3 without ZIP gene, 5 minute time course using 10 mM Zn
Description: Zinc uptake assays were performed as described previously for iron uptake (Eide et al. (1992) J. Biol. Chem. 267:20774-20781) except that ^65ZnCl2 (Amersham) and LZM-EDTA were substituted for ^59FeCI3 and LIM-EDTA, respectively. Cells were incubated for 5 minutes in LZM-EDTA plus the indicated concentration of ^65Zn, collected on glass fiber filters (Schleicher and Schuell), washed with 10 ml ice-cold SSW (1 mM EDTA, 20 mM trisodium citrate, 1 mM KH2PO4, 1 mM CaCl2, 5 mM MgSO4, 1 mM NaCl pH 4.2), and cell-associated radioactivity was measured by liquid scintillation counting. […] Michaelis-Menten kinetic values were determined using […] software (Intellikinetics, Princeton, N.J.). […] The statistical significance of the differences of values relative to controls was determined with one-way analysis of variance (ANOVA) followed by a Dunnett multiple comparison test. β-galactosidase activity was assayed in cells harvested at an OD600 of 0.5-2.0 as described by Guarente (Guarente, L. (1983) Methods Enzymol. 101:181-191) and activity is expressed as the change in absorbance at 420 nm×1000 divided by (min×ml of culture used×OD600 of the culture). Cell-associated zinc was measured in parallel cultures supplemented with tracer amounts of ^65Zn (10 μM) and nonradioactive zinc to the indicated final concentration. […]

zrt2 (ZHY2) cells = test: Zinc-limited growth, zrt2 mutant yeast; type: cell-based, Saccharomyces cerevisiae; details: zrt2, LZM, 16 hours
Description: Strains used were DY1457 (MATα ade6 can1 his3 leu2 trp1 ura3), ZHY1 (AMTα ade6 can1 his3 leu2 trp1 ura3 zrt1::LEU2), ZHY2 (MATα ade6 can1 his3 leu2 trp1 ura3 zrt2::HIS3), and ZHY3 (MATα ade6 can1 his3 leu2 trp1 ura3 zrt1::LEU2 zrt2::HIS3). Yeast were grown in YP or SD media (Sherman et al. (1986) Methods in Yeast Genetics, Cold Spring Harbor Laboratory, Cold Spring Harbor, N.Y.) supplemented with necessary auxotrophic requirements and either 2% glucose or 2% galactose. Zinc-limiting YP and SD agar plates contained either bathophenanthroline disulfonate (BPS, 200 μM) or EDTA (1 mM), respectively. […] The concentrations of free (i.e. unchelated) zinc were calculated using MAXCHELATOR software (Chris Patton, Stanford University). Cell number in liquid cultures was determined by measuring the absorbance of cell suspensions at 600 nm (OD600) and converting to cell number with a standard curve.
To further assess the role of the low affinity system as a source of zinc, growth of wild type and zrt2 cells in a zinc-limiting medium, LZM, supplemented with increasing amounts of zinc was examined. […] Number of cell divisions are plotted against [Zn]T and the calculated free zinc concentration ([Zn]F). […]

[2] = system: divalent cation uptake system; details: total zinc; earlier studies (Fuhrmann and Rothstein 1968); read-out: apparent Km of zinc uptake by the divalent cation uptake system; cited from earlier work

## [Zn+2] [zinc]
[1]
  zinc uptake: essentially no detectable zinc uptake
zrt2 (ZHY2) cells
  calculated free zinc [Zn]F sufficient for maximum growth yield: ~6 pM
  total zinc sufficient for maximum growth yield: 10 µM
[2]
  Km: ~500 µM
